SMILES strings stand for the structures. “Also recorded” adds a separate entry of the source. Bounds are passed on as bounds.

Experimental findings from publication PMC6692352, “DF2726A, a new IL-8 signalling inhibitor, is able to counteract chemotherapy-induced neuropathic pain” (Scientific Reports, 2019) are described below.

One data set addresses T1, human COX2 (Homo sapiens, UniProt P35354).
T1 construct: host or cells: Sf-9
Nature of the data set: COX2 assay, PGE2 formation from arachidonic acid, recombinant enzyme. In kind it is biochemical. On the procedure: Protein binding in human, dog and rat plasma […]
in DMSO at a final concentration of 2 mM. […]
plasma to obtain a final concentration of 10 µM. Human, dog and rat plasma (200 µL) in triplicate […]
vials for LC-MS/MS analysis. […]
(§1) mM Tris-HCl (pH 8.0), 1.98 mM phenol and 1.02 µM hematine. Thereafter, the reaction was initiated by adding 4 µM (COX1) or 2 µM (COX2) of arachidonic acid and the mixture was incubated for 5 min at RT. For basal control measurements, arachidonic acid was omitted from the reaction mixture. Following incubation, t he reaction was stopped by the addition of 1 M HCl then 1 M Tris/HCl (pH 8.0) followed by cooling to 4°C.
(§2) The fluorescence acceptor (d2 labeled PGE2) and the fluorescence donor (anti -PGE2 antibody labeled with europium Cryptate) were then added. After 120 min, the fluorescence transfer corresponding to the amount of residual PGE2 was measured at λex=337 nm, λem=620 nm and λem=665 nm using a microplate reader (Envision, Perkin Elmer). The enzyme activity was determined by dividing the signal measured at 665 nm by that measured at 620 nm (ratio). The results were expressed as a percent age inhibition of the control enzyme activity. The standard inhibitory reference compound was Diclofenac, which was tested in each experiment at several concentrations to obtain an inhibition curve from which its IC50 value was calculated. […]

In data set [1] the test system is oxaliplatin-induced cold allodynia. Nature of the data set: Oxaliplatin-induced cold allodynia (acetone test). The format is in vivo, male Wistar rats. Particulars: 30 mg/kg os for 24 days; from day 5 (P < 0.01) to final test day (P < 0.001). As for the experimental part: Behavioural tests were performed on male Wistar rats (200–250 g, Harlan, Italy) housed in the animal care facility at the Department of Pharmacy of the University of Naples Federico II, Italy, as previously described. Animals were housed, in a group of five, in a room with controlled temperature (22 ± 1 °C), humidity (60 ± 10%) and light (12 h per day); food and water were available ad libitum. All animals were weighted on the day of each treatment. All behavioural tests were performed between 09:00 and 17:00 h, and the animals were used only once. Animal care and manipulations were conducted in conformity with International and National law and policies (EU Directive 2010/63/EU for animal experiments, ARRIVE guidelines, and the Basel declaration including the 3R concept). The procedures reported here were approved by the Institutional Committee on the Ethics of Animal Experiments (CVS) of the University of Naples Federico II and by Ministero della Salute under protocol no. 2014-00884607. […]
Cold sensitivity was measured as the number of foot withdrawal responses after application of acetone to the dorsal surface of the paw[8],[22]. […] The mean of paw withdrawal (expressed in numbers) was determined from an average of six separate measurements. Cold responses were measured before (day -1) and then 3, 5, 7, 10, 14 and 21 days after first administration of oxaliplatin or vehicle. […]

Data set [2] is described as follows: Metabolic stability, human. In kind it is in vitro ADME. Particulars: Test conc: 2.5 µM. From the text: Table 1 Physicochemical and in Vitro ADME Properties of DF2726A. | column: DF2726A
In data set [3] the test system is spontaneous human polimorphonuclear neutrophil (hPMN) migration. Nature of the data set: Spontaneous hPMN migration. The format is cell-based. From the text:
chemotherapy-induced neuropathic pain”
Benedetti, Antonio Giordano, Annamaria Cimini, Marcello Allegretti.
Chemokines were from PeproTech (London, UK). Chemicals and cell culture reagents were from Sigma Aldrich (Saint Louis, MI, USA).
Cell isolation and culture
L’Aquila, Italy. Ethical clearance was obtained to perform these experiments. Human PMNs were […]
blood cells as previously described 1.
Cell viability, as measured by Trypan Blue dye exclusion, was greater than 98%. […]
microchemotaxis chamber, as previously described 2. Briefly, 25 µl of control medium (PBS for […]
the lower compartment of the chemotaxis chamber. […]
vehicle were seeded in the upper compartment. The two compartments were separated by 5 µm pre-size polycarbonate filter (polyvinylpyrrolidone-free for PMN chemotaxis). The chamber was […]
Physicochemical characterization […]
and a turbidity-sensing device. […]
water/HBSS to a final concentration of 10 μM. Cell membrane homogenates (48 μg protein) were […]

For the next data set, the target named is T2, hERG channel (Homo sapiens, UniProt Q12809).
T2 construct: host or cells: CHO-K1
T2 sequence (Q12809 whole entry): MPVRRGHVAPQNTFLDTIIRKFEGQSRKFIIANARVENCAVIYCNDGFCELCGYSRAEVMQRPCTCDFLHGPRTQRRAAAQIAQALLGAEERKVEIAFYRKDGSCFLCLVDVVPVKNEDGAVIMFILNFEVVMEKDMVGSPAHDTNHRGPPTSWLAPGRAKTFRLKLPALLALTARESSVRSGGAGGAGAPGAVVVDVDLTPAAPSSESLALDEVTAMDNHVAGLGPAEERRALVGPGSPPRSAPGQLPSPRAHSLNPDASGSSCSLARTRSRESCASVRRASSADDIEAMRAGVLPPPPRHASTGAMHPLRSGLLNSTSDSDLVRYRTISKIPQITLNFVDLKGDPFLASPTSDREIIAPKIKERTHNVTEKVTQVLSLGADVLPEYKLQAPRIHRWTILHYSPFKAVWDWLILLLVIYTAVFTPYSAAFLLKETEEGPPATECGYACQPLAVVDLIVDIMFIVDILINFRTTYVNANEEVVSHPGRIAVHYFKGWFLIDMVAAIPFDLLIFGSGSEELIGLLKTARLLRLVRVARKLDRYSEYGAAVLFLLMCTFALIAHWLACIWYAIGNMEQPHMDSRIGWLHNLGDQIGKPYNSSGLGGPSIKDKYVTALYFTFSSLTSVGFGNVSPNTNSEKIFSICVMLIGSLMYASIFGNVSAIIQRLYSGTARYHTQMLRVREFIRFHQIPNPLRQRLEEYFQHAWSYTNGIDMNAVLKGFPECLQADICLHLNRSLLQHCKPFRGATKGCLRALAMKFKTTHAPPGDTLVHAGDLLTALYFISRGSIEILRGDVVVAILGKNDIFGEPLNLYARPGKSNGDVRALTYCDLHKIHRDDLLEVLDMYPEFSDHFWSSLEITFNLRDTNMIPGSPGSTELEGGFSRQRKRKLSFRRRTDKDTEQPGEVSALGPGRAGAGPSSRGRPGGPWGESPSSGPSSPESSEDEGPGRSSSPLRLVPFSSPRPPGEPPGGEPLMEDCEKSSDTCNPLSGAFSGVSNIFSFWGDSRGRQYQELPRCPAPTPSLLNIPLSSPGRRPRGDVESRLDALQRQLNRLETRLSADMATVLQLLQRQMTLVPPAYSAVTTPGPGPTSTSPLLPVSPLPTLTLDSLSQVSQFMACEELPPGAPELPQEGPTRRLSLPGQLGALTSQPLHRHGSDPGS
Nature of the data set: hERG inhibition, automated patch clamp (QPatch 16) in CHO-K1 cells. In kind it is cell-based. Particulars: tested at 0.01-1 mM. On the procedure: as §1, §2
The human ether-a-go-go related gene (hERG) inhibition assay was performed by Eurofins Panlabs Inc, USA. […] Single cell ionic currents were measured in the automated patch clamp configuration at room temperature by using QPatch 16 in strument. […]
In general terms: hERG is a cardiac potassium channel; its block is linked to QT prolongation.

T1 sequence (P35354 18-604): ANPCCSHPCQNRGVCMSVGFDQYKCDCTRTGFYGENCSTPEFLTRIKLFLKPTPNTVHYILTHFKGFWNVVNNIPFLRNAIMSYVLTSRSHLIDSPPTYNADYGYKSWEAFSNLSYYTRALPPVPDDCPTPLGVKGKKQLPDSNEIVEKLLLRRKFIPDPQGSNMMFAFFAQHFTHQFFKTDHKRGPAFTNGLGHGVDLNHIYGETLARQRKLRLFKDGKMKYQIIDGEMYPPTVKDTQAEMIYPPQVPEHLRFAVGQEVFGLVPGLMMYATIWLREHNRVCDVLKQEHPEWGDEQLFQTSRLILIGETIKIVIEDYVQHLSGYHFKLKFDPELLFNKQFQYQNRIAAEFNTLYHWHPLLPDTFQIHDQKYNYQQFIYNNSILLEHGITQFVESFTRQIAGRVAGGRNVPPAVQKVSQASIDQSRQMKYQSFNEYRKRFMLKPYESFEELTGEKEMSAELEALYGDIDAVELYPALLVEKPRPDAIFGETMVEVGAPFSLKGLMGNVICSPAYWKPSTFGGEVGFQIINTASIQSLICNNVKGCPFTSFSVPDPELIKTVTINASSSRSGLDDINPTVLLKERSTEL

Take `CC(C)(C(=O)O)c1ccc(Nc2nc(C(F)(F)F)cs2)cc1` [DF2726A]: the “COX 2 Inhibition (50 µM)” value on human COX2 is listed as “did not inhibit; also recorded: No Inhibition observed”. For the same molecule, the “Effect on oxaliplatin-induced cold allodynia (acetone paw withdrawal responses)” value in data set [1] is “marked attenuation of cold allodynia”. For the same molecule, in data set [2], the Metabolic stability human came to 7.0 µL/min/10^6 cells. Besides, in data set [3], the “Inhibition of spontaneous hPMN migration per se” value is recorded as “did not inhibit”. Further, on hERG channel, the IC50 (in general, the concentration that inhibits the measured activity by half) was above 1000 µM.
